Test results as given in paper PMC8125951, “Exploring the 2′-Hydroxy-Chalcone Framework for the Development of Dual Antioxidant and Soybean Lipoxygenase Inhibitory Agents” (Molecules, 2021).
“And” between values parts separate entries of the source, which are not always exact repeats. Identical values can stand only once. Like-named read-outs stand apart in the source and are kept apart here.

Key:
[1] = Interaction with the stable free radical DPPH (reducing activity); details: 100 μM
Method: The first assay refers to the interaction of the compounds with the stable free radical DPPH and it is a fast, simple, cost-effective, and widely used method, where the DPPH radical reacts directly with the antioxidant and is decolorized. This interaction indicates their radical scavenging ability in an iron-free system. The scavenging effect of the synthesized analogues on the DPPH radical was evaluated according to the methods of Hadjipavlou et al..
To an ethanolic solution of DPPH (100 μM) in absolute ethanol, an equal volume of the compounds dissolved in DMSO was added (100 μM). […]

[2] = Inhibition of linoleic acid lipid peroxidation induced by AAPH
From the text: The second technique is based on the ability of the compounds to inhibit lipid peroxidation of linoleic acid induced by 2,2′-Azobis(2-amidinopropane) dihydrochloride (AAPH) radical (Table 2). AAPH-induced linoleic acid oxidation has been developed as a quick and reliable method for measuring the antioxidant activity. The thermal free radical producer (AAPH) generates free radicals in the solution which cause the oxidation of linoleic acid, and the method is a measure of how effective antioxidants protect against lipid peroxidation in vitro. Oxidation of linoleic acid by AAPH is followed by UV spectrophotometry in a highly diluted sample [61].
2,2′-Azobis(2-amidinopropane) dihydrochloride (AAPH) was used as a free radical initiator. Ten microliters of the 16 mM linoleic acid sodium salt solution was added to the UV cuvette containing 0.93 mL of 0.05 M phosphate buffer, pH 7.4 prethermostated at 37 °C. The oxidation reaction was initiated at 37 °C under air by the addition of 50 μL of 40 mM AAPH solution. Oxidation was carried out in the presence of the synthesized compounds (10 μL, from a stock solution of 10 mM in DMSO). In the assay without antioxidant, lipid oxidation was measured in the presence of the same level of DMSO.

soybean lipoxygenase = molecular target: T1, soybean lipoxygenase (Glycine max, UniProt P08170); experiment: Soybean LOX inhibition study in vitro; format: biochemical; details: for inhibition at 100 µM: read-out: Inhibition of Soybean Lipoxygenase 100 μM (%), at 100 μM
T1 sequence (P08170 1-839): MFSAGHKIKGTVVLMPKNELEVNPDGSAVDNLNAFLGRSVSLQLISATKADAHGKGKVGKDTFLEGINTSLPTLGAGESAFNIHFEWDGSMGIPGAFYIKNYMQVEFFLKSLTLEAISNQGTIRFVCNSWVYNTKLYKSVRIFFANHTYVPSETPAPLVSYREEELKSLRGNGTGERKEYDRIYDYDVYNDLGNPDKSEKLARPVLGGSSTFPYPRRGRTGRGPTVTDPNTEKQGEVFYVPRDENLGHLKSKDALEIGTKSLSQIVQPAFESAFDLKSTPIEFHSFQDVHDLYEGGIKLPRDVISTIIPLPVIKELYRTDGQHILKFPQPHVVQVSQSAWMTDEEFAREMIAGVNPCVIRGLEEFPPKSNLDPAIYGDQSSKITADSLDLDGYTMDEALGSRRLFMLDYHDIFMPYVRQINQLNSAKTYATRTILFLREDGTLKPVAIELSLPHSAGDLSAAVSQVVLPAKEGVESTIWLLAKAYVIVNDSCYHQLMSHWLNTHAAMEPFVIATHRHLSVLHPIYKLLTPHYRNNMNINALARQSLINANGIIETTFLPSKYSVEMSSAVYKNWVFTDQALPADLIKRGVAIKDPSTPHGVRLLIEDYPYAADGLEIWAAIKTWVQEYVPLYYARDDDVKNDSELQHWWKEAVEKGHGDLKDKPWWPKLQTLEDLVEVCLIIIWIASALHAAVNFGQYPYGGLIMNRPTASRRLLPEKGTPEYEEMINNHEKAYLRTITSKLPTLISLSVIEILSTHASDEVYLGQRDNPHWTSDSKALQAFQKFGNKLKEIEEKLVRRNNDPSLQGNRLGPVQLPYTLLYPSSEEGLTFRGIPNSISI
Method: Furthermore, as an indication of their anti-inflammatory activity, all the molecules were tested as inhibitors of soybean lipoxygenase (LOX). The enzyme lipoxygenase catalyzes the first two steps in the metabolism of arachidonic acid, which is cleaved from membrane phospholipids to leukotrienes (LTB4). LTB4 generation is considered to be important in the pathogenesis of neutrophil-mediated inflammatory diseases. For this study, the UV absorbance-based soybean LOX assay was used, which is a plant enzyme with satisfactory homology with the human 5-LOX [61, 62, 63, 64, 65, 66].
The tested compounds dissolved in DMSO were incubated at room temperature with sodium linoleate (0.1 mL) and 0.2 mL of enzyme solution ([…] in saline) in Tris buffer pH 9.

[3] = read-out: Inhibition of Soybean Lipoxygenase IC50

| IC50 (soybean lipoxygenase; [3]) | SMILES | Interaction with the Free Radical DPPH (%) ([1]; 20 min) | Interaction with the Free Radical DPPH (%) ([1]; 60 min) | Inhibition of Lipid Peroxidation of Linoleic Acid Induced by AAPH Radical (%) ([2]; 100 μM) | Inhibition of Lipid Peroxidation of Linoleic Acid Induced by AAPH Radical (%) ([2]; 0 min) | Inhibition of Lipid Peroxidation of Linoleic Acid Induced by AAPH Radical (%) ([2]; 3 min) | Inhibition of Lipid Peroxidation of Linoleic Acid Induced by AAPH Radical (%) ([2]; 6 min) | Inhibition of Lipid Peroxidation of Linoleic Acid Induced by AAPH Radical (%) ([2]; 9 min) | IC50 (soybean lipoxygenase) | inhibition at 100 µM (soybean lipoxygenase) |
| --- | --- | --- | --- | --- | --- | --- | --- | --- | --- | --- |
| – | O=C(/C=C/c1ccccc1)c1ccccc1O [Compound 3l, 2′-hydroxy-chalcone] | no | no | 87.6% | 87.6% | 93.2% | 95.7% | 94.3% | 100 µM | – |
| 67.5 µM | COCOc1ccc(/C=C/C(=O)c2cc(Br)cc(Br)c2O)cc1OCOC [Compound 3i, 3′,5′-bromo-3,4-dimethoxymethoxy-2′-hydroxy-chalcone] | totally inactive and no | no | 93.0% | 95.6% | 98.6% | 96.9% | 99.2% | – | – |
| – | COc1ccc(/C=C/C(=O)c2cc(Br)ccc2O)cc1OC [Compound 3f, 5′-bromo-3,4-dimethoxy-2′-hydroxy-chalcone] | totally inactive and no | no | inactive and no | – | – | – | – | – | 38% |
| – | C[C@H](Cc1ccc(O)c(O)c1)[C@@H](C)Cc1ccc(O)c(O)c1 [NDGA, Nordihydroguaiaretic acid, reference compound] | 87.0% | 93.0% | – | – | – | – | – | – | – |
| 55 µM | COCOc1ccc(/C=C/C(=O)c2cc(Br)ccc2O)cc1OCOC [Compound 3h, 5′-bromo-3,4-dimethoxymethoxy-2′-hydroxy-chalcone] | – | 6.0% | 65.6% | – | – | – | – | – | – |
| 67.5 µM | O=C(O)c1ccc(/C=C/C(=O)c2cc(Cl)ccc2O)cc1 [Compound 3k, 4-carboxy-5′-chloro-2′-hydroxy-chalcone] | no | no | no | – | – | – | – | – | – |
| – | COc1ccc(/C=C/C(=O)c2cc(Cl)ccc2O)cc1OC [Compound 3d, 5′-chloro-3,4-dimethoxy-2′-hydroxy-chalcone] | no | no | no | – | – | – | – | – | 32% |
| 100 µM | COC(=O)c1ccc(/C=C/C(=O)c2ccccc2O)cc1 [Compound 5, 4-Methoxycarbonyl-2′-Hydroxy-Chalcone] | no | no | 100% | 95.4% | 96.9% | 92.5% | 98.9% | – | – |
| 100 µM | O=C(O)c1ccc(/C=C/C(=O)c2ccccc2O)cc1 [Compound 3j, 4-carboxy-2′-hydroxy-chalcone] | no | no | no | – | – | – | – | – | – |

| SMILES | IC50 (soybean lipoxygenase; [3]) | Interaction with the Free Radical DPPH (%) ([1]; 20 min) | Interaction with the Free Radical DPPH (%) ([1]; 60 min) | Inhibition of Lipid Peroxidation of Linoleic Acid Induced by AAPH Radical (%) ([2]; 100 μM) | Inhibition of Lipid Peroxidation of Linoleic Acid Induced by AAPH Radical (%) ([2]; 0 min) | Inhibition of Lipid Peroxidation of Linoleic Acid Induced by AAPH Radical (%) ([2]; 3 min) | Inhibition of Lipid Peroxidation of Linoleic Acid Induced by AAPH Radical (%) ([2]; 6 min) | Inhibition of Lipid Peroxidation of Linoleic Acid Induced by AAPH Radical (%) ([2]; 9 min) | IC50 (soybean lipoxygenase) | inhibition at 100 µM (soybean lipoxygenase) |
| --- | --- | --- | --- | --- | --- | --- | --- | --- | --- | --- |
| COc1cccc(/C=C/C(=O)c2cc(Cl)ccc2O)c1OC [Compound 3e, 5′-chloro-2,3-dimethoxy-2′-hydroxy-chalcone] | 100 µM | no | no | 20.0% | – | – | – | – | – | – |
| COc1ccc(/C=C/C(=O)c2cc(Br)cc(Br)c2O)cc1OC [Compound 3g, 3′,5′-dibromo-3,4-dimetoxy-2′-hydroxy-chalcone] | 68.5 µM | totally inactive and no | no | inactive and 31.0% | – | – | – | – | – | – |
